Reference: article PMC12406198, “Decadentate Acyclic Chelators for Lanthanum Radiopharmaceuticals” (Journal of Medicinal Chemistry, 2025)
Read-outs that look alike come from different tables or passages of the source.

Key:
[1] = Stability constants of La^3+ complexes by pH potentiometry; type: physicochemical; details: for pLa: −log[La^3+]free for [L] = 10 μM and [La^3+] = 1 μM at pH 7.4 and 25 °C; for log K LaL ^La: 1:2 L:La^3+ complex; for log K LaL ^La / log K La2L ^OH / log K La2LOH ^OH / log K LaL / pH at which dissociation of the La^3+ complex occurs (speciation diagrams) / log K LaL ^OH: I = 0.15 M NaCl, 25 °C; for pH at which dissociation of the La^3+ complex occurs (speciation diagrams): cLa3+ = cLig = 10^–3 M; for log K LaL ^OH: hydroxo-complex; for amount of La^3+ not complexed at the beginning of the titration: pH 1.7
Description: The stability constants of the La^3+ complexes were determined using pH potentiometry (I = 0.15 NaCl). A significant amount of the metal ion is not complexed by the TPADAC^4– ligand at the beginning of the titration at pH 1.7 (∼20%), which allows for stability constant determination using potentiometry. In the case of TPAEN^4– the amount of free La^3+ was small (∼4%), but the stability constants could be determined by fitting the titration data using both 1:1 and 1:2 (TPAEN^4–:La^3+) stoichiometries (Figure S1, Supporting Information). The TPADAC^4– ligand also forms complexes with 1:1 and 1:2 stoichiometries (Figure S2, Supporting Information).
The thermodynamic stability of the complexes at physiologically relevant pH was assessed by calculating pLa values, defined as −log[La^3+]free for [L] = 10 μM and [La^3+] = 1 μM at pH 7.4 and 25 °C following the recommendation of Raymond. This is a result of the high stability constants (log K LaL) that characterize the formation of these complexes, as well as the relatively low basicity of these ligands. Indeed, cyclohexyl derivatives TPADAC^4– and CHXOCTAPA^4– display considerably higher basicity than the ethyl analogues, as indicated by the Σ log K i ^H (i = 1–5) values shown in Table . Similarly, DTPA and DO3A derivatives are characterized by rather high basicities, which results in relatively low pLa values.
(§1) The pH-potentiometric titrations were carried out with a Methrohm 785 DMP titrator using a Metrohm-6.0233.100 combined electrode. The titrated solutions (5.000 mL) were thermostated at 25 °C and stirred and kept under inert gas atmosphere (N2) to avoid the effect of CO2. The pH-calibration of the electrode was performed using KH-phthalate (pH = 4.005) and borax (pH = 9.177) buffers. The concentrations of the ligand stock solutions were determined by pH-potentiometric titration. The protonation constants of the TPAEN^4– (in the pH range of 2.19–12.00 a total of 213 data pairs by titrating a 2.72 mM a ligand solution) and TPADAC^4– (in the pH range of 1.88–11.85 a total of 208 data pairs by titrating a 2.32 mM ligand solution), the stability and protonation constants of the complexes formed with La^3+ and the formation constants of their dinuclear complexes were determined by pH-potentiometric titration. The metal-to-ligand concentration ratios were 1:1 and 2:1. For the 1:1 ratio a total of 240 data pairs were recorded for a H4TPAEN concentration of 2.29 mM in the pH range of 1.77–11.86, while a total of 222 data pairs were collected in the pH range 1.72–11.85 for a 2.72 mM solution of H4TPADAC. For the 2:1 ratio we collected 259 data pairs for a 2.31 mM solution of H4TPAEN in the pH range of 1.73–11.82, and 259 data pairs for a 2.71 mM concentration of H4TPADAC in the pH range of 1.70–11.85. The calculation of [H^+] from the measured pH values was performed with the use of the method proposed by Irving et al. by titrating a 0.01 M HCl solution (I = 0.15 M NaCl) with a standardized NaOH solution. The differences between the measured and calculated pH values were used to obtain the [H^+] concentrations from the pH-data obtained in the titrations. The ionic product of water was determined from the same experiment in the pH range 11.25–11.85. The protonation and stability constants were calculated from the titration data with the PSEQUAD program. The quality of the fits was assessed with the fitting parameter (FP) calculated by PSEQUAD, which is defined as 2 FP=∑i=1n(Vi,calc−Vi,meas)^2/n−k

[2] = cited from earlier work
[3] = Ligand protonation constants by pH-potentiometric titration; type: physicochemical; details: sum of literature protonation constants of related ligands
[4] = literature value; ref footnote f; cited from earlier work
[5] = Dissociation kinetics: transmetalation of La^3+ complexes with Cu^2+ as scavenger (UV-vis); type: physicochemical; details: for k 3 ^Cu: Cu^2+-assisted pathway; for k 3 ^Cu / k 6 ^Cu / k 2 / K Cu / k 1: 25 °C, 0.15 M NaCl; for k obs for [Cu^2+] = 1 nM / k obs for [Cu^2+] = 1 μM: calculated at pH 7.4; for k 6 ^Cu: dinuclear hydroxo-complex pathway; for k 2: diprotonated pathway; for K Cu: formation of ternary LaLCu complex; for k 1: proton-assisted dissociation of La^3+ complex
Description: The inertness of metal complexes for radiopharmaceutical applications is important to ensure that the radioisotope is not released in vivo off-target. Furthermore, the detailed study of the dissociation mechanism of the complexes provides useful information for ligand design. Thus, we performed a detailed investigation of the dissociation kinetics of the [La(TPAEN)]^− and [La(TPADAC)]^− complexes using Cu^2+ as a scavenger. The reactions were studied spectrophotometrically in the approximate proton concentration range 1.1 × 10^–5–1.6 × 10^–2 M, which corresponds to a pH range of about 1.8–5.0. A large excess of Cu^2+ was used to ensure pseudo-first order conditions.
The latter may proceed through the formation of mono- or diprotonated intermediates, with associated rate constants k 1 and k 2, respectively. […] Thus, we analyzed the kinetic data using the following expression: 1 kobs=k0+k1[H^+]+k2[H^+]^2+k3[Cu^2+]+k6[Cu^2+]Kw/[H^+]/1+KCu[Cu^2+] Here, k 1, k 2, k 3 ^Cu and k 6 ^Cu are the rate constants defined above, k 0 is the rate constant characterizing the spontaneous dissociation mechanism, K w is the ionic product of water (fixed at pK w = 13.72) and K Cu is the equilibrium constant for the formation of the ternary complex (K Cu= [LaLCu]/[Cu^2+][LaL]).
The rates of the metal exchange reactions of the [La(TPAEN)]^− and [La(TPADAC)]^− complexes with Cu(II) were studied by using UV–vis spectrophotometry following the formation of corresponding Cu(II) complexes. The metal exchange reactions of [La(TPAEN)]^− and [La(TPADAC)]^− were examined by conventional spectrophotometric methods tracking the changes in absorption at 305 nm within the pH range of 1.84 to 4.94 (for [La(TPAEN)]^−). The concentration of the complexes was 0.252 mM, while the Cu(II) ion was applied in high excess (12 to 42 times) to ensure pseudo-first-order conditions. The temperature was maintained at 25 °C, and the ionic strength of the solutions was kept constant at 0.15 M NaCl. Dimethylpiperazine (DMP, 50 mM) buffer was used to maintain the pH constant (log K 2 ^H = 4.18) in the pH range of 3.40 to 4.89 (for [La(TPADAC)]^−). At lower pH, the data were supplemented by following the reactions in the range pH of 2.57 to 3.23 using chloroacetic acid (log K 2 ^H = 2.87) at the same concentration. The pseudo-first-order rate constants (k obs) were calculated by fitting the absorbance vs time data to eq : 3 At=(A0−Ae)e^−kobst+Ae where A t , A 0 and A e are the absorbances recorded at time t, at the start of the reaction and upon reaching equilibrium, respectively. The fittings were performed with the computer program Micromath Scientist, version 2.0 (Salt Lake City, UT) by using a standard least-squares procedure.

[6] = Ligand protonation constants by pH-potentiometric titration; type: physicochemical; details: I = 0.15 M NaCl, 25 °C; for Σ log K i ^H (i = 1–5): sum of the constants measured here
Description: Ligand protonation constants were determined in 0.15 M NaCl using potentiometric titrations (Figures S1–S2, Supporting Information). The results are compared with those reported previously for OCTAPA^4– and CHXOCTAPA^4– in Table , while the speciation diagrams are shown in Figure S3 (Supporting Information). The first two protonation constants of these ligands, characterized by log K 1 ^H and log K 2 ^H, correspond to the protonation of amine groups, while the remaining protonation constants are ascribed to the carboxylate groups of picolinate and acetate moieties. ,
as §1

| Compound | pLa ([1]; from literature constants) | Σ log K i ^H (i = 1–5) [3] | log K 1 ^H [4] | log K 2 ^H [4] | log K 3 ^H [4] | log K 4 ^H [4] | log K 5 ^H [4] | log K LaL ^La [1] | log K La2L ^OH [1] | log K La2LOH ^OH [1] | log K LaL [1] | pH at which dissociation of the La^3+ complex occurs (speciation diagrams) [1] | log K LaL ^OH [1] | amount of La^3+ not complexed at the beginning of the titration [1] [%] | pLa ([1]; from constants measured here) | k 3 ^Cu [5] | k obs for [Cu^2+] = 1 nM [5] | k obs for [Cu^2+] = 1 μM [5] | k 6 ^Cu [5] | k 2 [5] [M^–2 s^–1] | other results |
| --- | --- | --- | --- | --- | --- | --- | --- | --- | --- | --- | --- | --- | --- | --- | --- | --- | --- | --- | --- | --- | --- |
| O=C(O)c1cccc(CN2CCOCCOCCN(Cc3cccc(C(=O)O)n3)CCOCCOCC2)n1 [MACROPA^2–, N,N’-bis[(6-carboxy-2-pyridil)methyl]-4,13-diaza-18-crown-6] | 15.6 | – | – | – | – | – | – | – | – | – | – | – | – | – | – | – | – | – | – | – | log K LaL ([2]; 0.1 M KCl, ref footnote d): 14.99; log K LaL ^H ([2]; 0.1 M KCl, ref footnote d): 2.28 ^d; log K LaL ([2]; 0.1 M NaCl, ref footnote e): 13.9 |
| O=C(O)CN(CCN(CC(=O)O)CC(=O)O)CC(=O)O [EDTA^4–, ethylenediamine-N,N,N′,N′-tetraacetic acid] | – | 21.27 | 9.17 | 5.99 | 2.73 | 2.01 | 1.38 | – | – | – | – | – | – | – | – | – | – | – | – | – | – |
| O=C(O)c1cccc(CN(Cc2cccc(C(=O)O)n2)[C@@H]2CCCC[C@H]2N(Cc2cccc(C(=O)O)n2)Cc2cccc(C(=O)O)n2)n1 [TPADAC^4–] | – | – | – | – | – | – | – | 2.85(1) | 6.99(4) | 9.40(4) | 19.55(1) | < 3.0 | 12.06(1) | ~20 | 17.1 | (7.8 ± 2.2)×10^–3 M^–1 s^–1 | 1.123 × 10^–8 s^–1 | 7.381 × 10^–6 s^–1 | (1.5 ± 0.3)×10^7 M^–2 s^–1 | 232.3 ± 36.8 | K Cu [5]: 74.3 ± 30.2 M^–1; k 1 [5]: 0.097 ± 0.036 M^–1 s^–1; log K 1 ^H [6]: 10.79(1); log K 2 ^H [6]: 4.95(1); log K 3 ^H [6]: 4.06(1); log K 4 ^H [6]: 3.46(1); log K 5 ^H [6]: 2.94(1); log K 6 ^H [6]: 0.67(6); Σ log K i ^H (i = 1–5) [6]: 26.20 |
| O=C(O)CN(CC(=O)O)[C@@H]1CCCC[C@H]1N(CC(=O)O)CC(=O)O (relative stereo) [CDTA^4–, 2,2′,2″,2‴-((trans-cyclohexane-1,2-diyl)bis(azanetriyl))tetraacetic acid] | – | 22.99 | 9.36 | 5.95 | 3.62 | 2.57 | 1.49 | – | – | – | – | – | – | – | – | – | – | – | – | – | – |
| O=C(O)c1cccc(CN(CCN(Cc2cccc(C(=O)O)n2)Cc2cccc(C(=O)O)n2)Cc2cccc(C(=O)O)n2)n1 [TPAEN^4–, N,N,N′N′-tetrakis[(6-carboxypyridin-2-yl)methyl]-ethylenediamine] | – | – | – | – | – | – | – | 2.31(13) | 6.80(10) | 9.57(10) | 19.16(8) | < 2.5 | 12.62(9) | ~4 | 19.5 | 0.74 ± 0.05 M^–1 s^–1 | 4.34 × 10^–7 s^–1 | 3.45 × 10^–4 s^–1 | (7.2 ± 0.5)×10^8 M^–2 s^–1 | 110.93 ± 10.42 | K Cu [5]: 42.0 ± 4.5 M^–1; k 1 [5]: 2.24 ± 0.13 M^–1 s^–1; log K 1 ^H [6]: 7.87(1); log K 2 ^H [6]: 5.14(1); log K 3 ^H [6]: 3.89(1); log K 4 ^H [6]: 3.28(1); log K 5 ^H [6]: 2.55(1); log K 6 ^H [6]: 0.89(8); Σ log K i ^H (i = 1–5) [6]: 22.73 |
| O=C(O)CN1CCN(CC(=O)O)CCN(Cc2cccc(C(=O)O)n2)CCN(CC(=O)O)CC1 [DO3Apic^4–, 2,2′,2″-(10-((6-carboxypyridin-2-yl)methyl)-1,4,7,10-tetraazacyclododecane-1,4,7-triyl)triacetic acid] | 16.6 | – | – | – | – | – | – | – | – | – | – | – | – | – | – | – | – | – | – | – | log K LaL ([2]; 0.1 M KCl, ref footnote f): 21.17; log K LaL ^H ([2]; 0.1 M KCl, ref footnote f): 2.55 |
